Measurements taken from US9789194B2, “Graft copolymer polyelectrolyte complexes for drug delivery” (priority 2007, dated 2017).
Peptide text beside a SMILES is read from it.

Key:
in vitro = settings: human, plasma, half-life of the peptide, 50% human plasma
Experimental: Aqueous solutions of the peptide:polymer complexes with various peptide:[…], were combined 1:1 v/v with human plasma sodium heparin anticoagulated, Biological Specialty Corporation) and placed in a 37° C. incubator. Fifty microliter aliquots of this mixture were injected at 1 h intervals onto a Prosphere HP C18-300 column, 250×4.6 mm ((Grace) mounted on a Waters HPLC system. The injection was loaded onto the column and equilibrated using a 90%/10%/0.1% water/acetonitrile/trifluoroacetic acid mobile phase and then eluted using a continuous gradient up to 70% acetonitrile. Integration of the KSL-W absorbance peak at 280 nm was used to determine peptide concentration in each sample. Every sample was run in parallel with a free-drug control at the same concentration.

[1] = KSL-W binding efficiency by ultrafiltration; type: physicochemical; settings: free peptide, 10 kDa MWCO ultrafiltration
Experimental: Efficiency of binding for each polymer-drug complex was determined using ultrafiltration. Ultrafiltration cartridges with 10 k MWCO (Amicon Microcon Ultrafiltration Filters) were used according to manufacturer's instructions. […] The KSL-W content of filtrate and retentate were determined using HPLC as described above.

[2] = KSL-W release profiles by dialysis; type: physicochemical; settings: free peptide, within the first 6 h of dialysis
Experimental: Each membrane cartridge was placed into 40 mL of water at 37° C. with gentle rocking (VWR brand incubating rocker, 50 Hz/15°). […] The amount of KSL-W remaining in each cartridge was evaluated at each time point using HPLC.

[3] = tested on: Staphylococcus aureus UAMS-1; type: cell-based
Experimental: The minimum inhibitory concentrations (MIC) KSL-W and its nanocomplexes were measured using the Clinical Laboratory Standards Institute (CLSI) broth microdilution method. Briefly, two-fold serial dilutions of free or complexed KSL-W solutions were prepared in THB medium at a volume of 200 µL/well in flat-bottom 96-well tissue culture plates (BD Biosciences). Hundred microliter of Staphylococcus aureus UAMS-1 (10^6 CFU/mL) was then added to each well. Plates were incubated overnight at 37° C. and then assessed by turbidity (absorbance at 600 nm). The concentration at which no turbidity was observed was considered the MIC. Each assay was reproduced in triplicate.

| Molecule | half-life (in vitro; initial KSL-W concentration between 33 and 72 μg/mL) | half-life (in vitro; initial concentration between 13:2 and 330) | efficiency of passing through the membrane [1] | release through 8-10 kDa dialysis membrane [2] | MIC (S. aureus UAMS-1) ([3]; UAMS-1) | MIC ratio (complexed/free) ([3]; free peptide, charge ratio NA) | MIC ([3]; same S. aureus strain and conditions) |
| --- | --- | --- | --- | --- | --- | --- | --- |
| CC(C)[C@H](NC(=O)[C@H](Cc1c[nH]c2ccccc12)NC(=O)[C@H](Cc1ccccc1)NC(=O)[C@@H](NC(=O)[C@@H](NC(=O)[C@H](CCCCN)NC(=O)[C@@H](N)CCCCN)C(C)C)C(C)C)C(=O)N[C@@H](CCCCN)C(=O)N[C@@H](Cc1ccccc1)C(=O)N[C@@H](CCCCN)C(N)=O [KSL-W] (H-KKVVFWVKFK-NH2; N-terminus and C-terminus assumed) | 4 h | 1 h | over 95% | over 95% | 62 to 153 µg/mL | 1 |  |
| gentamicin |  |  |  |  |  |  | < 3100 µg/mL |
